Type in all cases: cell-based
Experiment [1] concerns Vero cells. Put plainly: Cytotoxicity in Vero cells (MTS assay). Conditions: Chlorocebus sabaeus. In general terms: Tetrazolium assays rely on reduction of a dye to a coloured formazan, in cell work by metabolically active cells.
The test system of experiment [2] is M. tuberculosis H37Rv. Put plainly: microbe, parasite or virus in culture. Conditions: for inhibition of growth at 12.5 µg/mL: Mycobacterium tuberculosis, at 12.5% μg/ml (so in the source), read-out: Primary Screen PI (% inhibition of growth); for inhibition of growth at 12.5 µg/mL / % Inh: M. tuberculosis H37Rv; for activity against M. tuberculosis H37Rv in the primary screen: in words; for % Inh: screen concentration 12.5 g/ml [sic], Table 8.

Experiment [3] concerns M. tuberculosis H37Rv. The experiment is described as follows: MIC99 determination, BACTEC 460 radiometric system. Conditions: for MIC99: Table 3, read-out: Screen 2 MIC99.
In experiment [4] the test system is M. tuberculosis H37Ra. The experiment is described as follows: MIC/MBC, colorimetric (alamar blue) microdilution broth assay. As to conditions: Mycobacterium tuberculosis, H37RA, M. tuberculosis H37Ra, positive control; read-out: MIC.
Where [5] appears, read: 72 h, Vero cells, 72 h exposure, Table 3, read-out: IC50.
The mark [6] stands for this setting: Mycobacterium tuberculosis, M. tuberculosis H37Rv.
Setting [7] is: Vero cells, Table 8, read-out: IC50.
Setting [8] is: Mycobacterium tuberculosis, M. tuberculosis H37Rv, Table 8, read-out: MIC.
Where [9] appears, read: Mycobacterium tuberculosis, H37RV.

The term IC50 denotes the concentration that inhibits the measured activity by half. The inhibition of growth is how much of the control response was suppressed. As usually defined, the MIC99 is the lowest concentration that inhibits either 99% of growth or 99% of the strains tested, depending on the study. A word on the MIC: it is the smallest concentration in the dilution series that meets the test's criterion for growth inhibition.

≈ marks a conversion by molar mass, not a printed value. Read-outs that look alike come from different tables or passages of the source.

Consider `CCOC(=O)Nc1cc(NCc2ccc(S(N)(=O)=O)cc2)c2nc(-c3ccccc3)c(-c3ccccc3)nc2n1` [Compound 4427-026-15, [2,3-Diphenyl-8-(4-sulfamoyl-benzylamino)-pyrido[2,3-b]pyrazin-6-yl]-carbamic acid ethyl ester], for which, in experiment [1] (setting [5]), the IC50 is > 6.25 µg/mL. Also, in experiment [2], the inhibition of growth at 12.5 µg/mL is 97% and the “activity against M. tuberculosis H37Rv in the primary screen” value is given as “demonstrated activity”. For the same compound, in experiment [3] (setting [6]), the MIC99 came to 0.39 µg/mL (≈ 0.703 µM).

As to `CCOC(=O)Nc1cc(NC(C)CCCN(CC)CC)c2nc(-c3ccccc3)c(-c3ccccc3)nc2n1` (centres unmarked) [Compound A1], in experiment [1] (setting [7]), the IC50 came to 4.3 µg/mL (≈ 8.16 µM). Further, in experiment [2], the “% Inh” value worked out at 100%. Also, the MIC in experiment [3] (M. tuberculosis H37Rv, Table 8) turned out to be 0.2 µg/mL (≈ 0.38 µM).

As for `CCOC(=O)Nc1cc2c(c(N)n1)N=C(c1ccccc1)CCN2` [Compound A2], the IC50 in experiment [1] (setting [7]) was > 200 µg/mL. For the same compound, the “% Inh” value in experiment [2] was 100%. For the same compound, in experiment [3] (setting [8]), the minimal inhibitory concentration (MIC) worked out at 6.25 µg/mL (≈ 19.2 µM).

`CCOC(=O)Nc1cc(NC(C)CCCN(CC)CC)c2ncc(-c3ccc(Cl)c(Cl)c3)nc2n1.Cl.Cl` (centres unmarked) [Compound A7] returned an IC50 in experiment [1] of 1.89 µg/mL. In addition, in experiment [2], the “% Inh” value is 99%. Moreover, the MIC in experiment [3] (setting [8]) was 3.13 µg/mL.

`CCOC(=O)Nc1cc(N)c(N)c(NC(C)C(O)c2ccccc2)n1` (centres unmarked) [Compound A10]: the IC50 in experiment [1] (setting [7]) was > 200 µg/mL. In addition, the “% Inh” value in experiment [2] stood at 99%. The MIC in experiment [3] (setting [8]) turned out to be 12.5 µg/mL (≈ 36.2 µM).

Take `CC(C)OC(=O)Nc1cc2c(c(N)n1)N=C(c1ccccc1)[C@H](C)N2` [Compound A11]: in experiment [1] (setting [7]), the IC50 amounted to 1.51 µg/mL (≈ 4.45 µM). Besides, the “% Inh” value in experiment [2] turned out to be 99%. In addition, in experiment [3] (setting [8]), the MIC is 12.5 µg/mL (≈ 36.8 µM).

`CCOC(=O)Nc1cc2c(c(N)n1)N=C(c1ccc3c(c1)OCO3)[C@H](C)N2` [Compound A12]: the IC50 in experiment [1] (setting [7]) stood at 1.51 µg/mL (≈ 4.09 µM). The “% Inh” value in experiment [2] came out at 99%. Further, the MIC in experiment [3] (setting [8]) was found to be 12.5 µg/mL (≈ 33.8 µM).

`CCOC(=O)Nc1cc(NC(C)CCCN(CC)CC)c2nc(-c3ccccc3)c(-c3ccccc3)nc2n1.Cl` (centres unmarked) [Compound A21] came in with an IC50 in experiment [1] of 8.3 µg/mL. In experiment [2], the “% Inh” value was found to be 98%. The MIC in experiment [3] (setting [8]) was 0.1 µg/mL.

Take `CCOC(=O)Nc1cc(NC(C)CCCN(CC)CC)c2ncc(-c3ccc(OC)cc3)nc2n1.Cl` (centres unmarked) [Compound A22]: the IC50 in experiment [1] was 8.7 µg/mL. Besides, in experiment [2], the “% Inh” value turned out to be 98%. Further, in experiment [3] (setting [8]), the MIC worked out at 1.56 µg/mL.

Compound `CCOC(=O)Nc1cc(NC(C)CCCN(CC)CC)c2ncc(-c3ccc(C(F)(F)F)cc3)nc2n1` (centres unmarked) [Compound A23] yielded an IC50 in experiment [1] of 1.6 µg/mL (≈ 3.09 µM). Besides, the “% Inh” value in experiment [2] was 98%. Besides, the lowest concentration to inhibit growth in experiment [3] (setting [9]) (MIC) was 6.25 µg/mL (≈ 12.1 µM).

Take `CCOC(=O)Nc1cc(NC(C)CCCN(CC)CC)c2nc(-c3ccc(F)cc3)cnc2n1` (centres unmarked) [Compound A25]: the 50% inhibitory concentration (IC50) in experiment [1] was determined as 6.8 µg/mL (≈ 14.5 µM). In experiment [2], the “% Inh” value is 98%. The compound also showed an MIC in experiment [3] (setting [9]) of 12.5 µg/mL (≈ 26.7 µM).

As to `C[C@@H]1Nc2cc(NC(=O)OCc3ccccc3)nc(N)c2N=C1c1ccccc1` [Compound A26], in experiment [1] (setting [7]), the IC50 is 1.51 µg/mL (≈ 3.9 µM). In addition, in experiment [2], the “% Inh” value was 98%. In addition, the MIC in experiment [3] (setting [8]) amounted to 12.5 µg/mL (≈ 32.3 µM).

Consider `CCOC(=O)Nc1cc(NCc2ccc(S(N)(=O)=O)cc2)c2nc(-c3ccccc3)c(-c3ccccc3)nc2n1` [Compound A33], for which the half-inhibitory concentration (IC50) in experiment [1] (setting [7]) is > 6.25 µg/mL. In addition, the “% Inh” value in experiment [2] turned out to be 97%. Further, in experiment [3] (setting [8]), the MIC came to 0.39 µg/mL (≈ 0.703 µM).

`CCOC(=O)Nc1cc(NC(C)CCCN(CC)CC)c2nc(-c3ccc(Cl)cc3)cnc2n1.Cl.Cl` (centres unmarked) [Compound A34] had an IC50 in experiment [1] of 2.28 µg/mL. The “% Inh” value in experiment [2] is on record as 97%. In experiment [3] (setting [8]), the MIC is 6.25 µg/mL.

In the case of `CCOC(=O)Nc1cc(NC(C)C(O)COc2ccccc2)c(N)c(N)n1` (centres unmarked) [Compound A35], in experiment [1] (setting [7]), the concentration for half-maximal inhibition (IC50) was > 1000 µg/mL. For the same compound, in experiment [2], the “% Inh” value is 97%. For the same compound, in experiment [3] (setting [8]), the minimal inhibitory concentration (MIC) came out at 12.5 µg/mL (≈ 33.3 µM).

As to `O=C(Nc1cc(Cl)cc(NC(=O)Oc2ccccc2)n1)Oc1ccccc1` [Compound A36], the “% Inh” value in experiment [2] was 97%. In experiment [3] (setting [9]), 12.5 µg/mL (≈ 32.6 µM) was the least that counted as inhibitory (MIC).

In the case of `CCOC(=O)Nc1cc(NC(C)CCCN(CC)CC)c2ncc(-c3ccccc3)nc2n1.Cl.Cl` (centres unmarked) [Compound A37], the “% Inh” value in experiment [2] was 96%. The minimum inhibitory concentration (MIC) in experiment [3] (setting [8]) came to 12.5 µg/mL.

For the compound `CCOC(=O)Nc1cc2[nH]c(-c3ccc4c(c3)OCO4)nc2c(NC(c2ccccc2)c2ccccc2)n1` [Compound A39], the IC50 in experiment [1] (setting [7]) was > 200 µg/mL. Also, the “% Inh” value in experiment [2] was 95%. The MIC in experiment [3] (setting [8]) amounted to 1.56 µg/mL (≈ 3.07 µM).

On to `CCOC(=O)Nc1cc2c(c(N)n1)N=C(c1ccccc1)C(C)(C)S2.Cl` [Compound A40], for which, in experiment [2], the “% Inh” value is listed as 95%. The MIC in experiment [3] (setting [8]) was > 6.25 µg/mL.

For the compound `CCCCC1=Nc2c(cc(NC(=O)OCC)nc2N)NC1C` (centres unmarked) [Compound A41], the IC50 in experiment [1] (setting [7]) stood at 1.51 µg/mL (≈ 4.94 µM). Further, in experiment [2], the “% Inh” value is recorded as 95%. Moreover, in experiment [3] (setting [8]), the MIC is 12.5 µg/mL (≈ 40.9 µM).

Turning to `CCOC(=O)Nc1cc2c(c(N)n1)N=C(c1cc(OC)cc(OC)c1)[C@H](C)O2` [Compound A42], the “% Inh” value in experiment [2] was 95%. Further, the MIC in experiment [3] (setting [8]) is 12.5 µg/mL (≈ 32.3 µM).

For the compound `CCOC(=O)Nc1cc(Nc2ccc(Cl)cc2)c2nccnc2n1` [Compound A43], in experiment [2], the “% Inh” value was determined as 94%. Also, the MIC in experiment [3] (setting [8]) was found to be 6.25 µg/mL (≈ 18.2 µM).

Consider `CCOC(=O)Nc1cc2c(c(N)n1)N=C(c1ccc(OC)cc1)C(C)N2` (centres unmarked) [Compound A44], for which the IC50 in experiment [1] (setting [7]) was determined as 1.53 µg/mL (≈ 4.31 µM). Also, the “% Inh” value in experiment [2] came out at 94%. The minimal inhibitory concentration (MIC) in experiment [3] (setting [8]) came to 12.5 µg/mL (≈ 35.2 µM).

On to `CCOC(=O)Nc1cc2[nH]c(-c3ccc(OC)cc3)nc2c(NC(c2ccccc2)c2ccccc2)n1` [Compound A46], for which the IC50 in experiment [1] (setting [7]) worked out at 189 µg/mL (≈ 383 µM). The “% Inh” value in experiment [2] came to 93%. Moreover, the MIC in experiment [3] (setting [8]) turned out to be 3.13 µg/mL (≈ 6.34 µM).

As for `CCOC(=O)Nc1cc(NC/C(=N\O)C23CC4CC(CC(C4)C2)C3)c([N+](=O)[O-])c(N)n1` [Compound A47], the “% Inh” value in experiment [2] is 93%. Moreover, in experiment [3] (setting [8]), the MIC is > 12.5 µg/mL.

As to `CCOC(=O)Nc1cc(NC(C)CCCN(CC)CC)c2nc(-c3ccc([N+](=O)[O-])cc3)cnc2n1` (centres unmarked) [Compound A50], in experiment [2], the “% Inh” value turned out to be 92%. Further, the MIC in experiment [3] (setting [9]) was > 6.25 µg/mL.

In the case of `CCOC(=O)Nc1cc2nc(-c3ccccc3)c(-c3ccccc3)nc2c(NC(=O)OCC)n1` [Compound A51], in experiment [2], the “% Inh” value is given as 92%. For the same compound, in experiment [3] (setting [8]), the minimal inhibitory concentration (MIC) was > 6.25 µg/mL.

For the compound `CCOC(=O)Nc1cc2[nH]c(-c3ccccc3)nc2c(NC(c2ccccc2)c2ccccc2)n1` [Compound A52], the IC50 in experiment [1] (setting [7]) is > 200 µg/mL. Moreover, in experiment [2], the “% Inh” value came to 92%. In addition, the MIC in experiment [3] (setting [8]) was determined as 12.5 µg/mL (≈ 27 µM).

Consider `CCOC(=O)Nc1cc2c(c(N)n1)N=C(CN(C)c1ccccc1)CN2` [Compound A53], for which, in experiment [1] (setting [7]), the IC50 was found to be 0.41 µg/mL (≈ 1.16 µM). For the same compound, in experiment [2], the “% Inh” value was 92%. Further, in experiment [3] (setting [8]), the MIC stood at 12.5 µg/mL (≈ 35.3 µM).

Take `CCOC(=O)Nc1cc2c(c(N)n1)N=C(c1ccccc1)C(c1ccccc1)O2` (centres unmarked) [Compound A55]: in experiment [2], the “% Inh” value is given as 90%. For the same compound, the MIC in experiment [3] (setting [8]) was found to be 6.25 µg/mL (≈ 16.1 µM).

As for `CCOC(=O)Nc1cc2c(c(N)n1)N=C(c1ccccc1)[C@H](C)O2` [Compound A56], the “% Inh” value in experiment [2] was 90%. Also, the MIC in experiment [3] (setting [8]) came out at 12.5 µg/mL (≈ 38.3 µM).

With `CC[C@@H](CO)NCCN[C@@H](CC)CO` [Ethambutol, ethambutol, reference compound], the MIC in experiment [4] amounted to 2 µg/mL (≈ 9.79 µM).

Take `CCOC(=O)Nc1cc(NC(C)C(O)COc2ccccc2)c(N)c(N)n1` (centres unmarked) [SRI-7405, [5,6-Diamino-4-(2-hydroxy-1-methyl-3-phenoxy-propylamino)-pyridin-2-yl]-carbamic acid ethyl ester]: the IC50 in experiment [1] (setting [5]) is > 1000 µg/mL. Further, in experiment [2], the inhibition of growth at 12.5 µg/mL amounted to 97% and the “activity against M. tuberculosis H37Rv in the primary screen” value is “demonstrated activity”. Also, the MIC99 in experiment [3] (setting [6]) worked out at 12.5 µg/mL (≈ 33.3 µM).

The values are drawn from US7718651B2, “Inhibitors of FtsZ and uses thereof” (priority 2002, dated 2010).
